≈ marks a conversion by molar mass, not a printed value. Calls of active or inactive are those of the source. The calls are words filed in the database; no cut-off is given here.

One experiment deals with Enterococcus faecalis. Briefly: Antibiofilm activity in multidrug resistant Enterococcus faecalis ATCC 51299 assessed as inhibition of biofilm formation at 4 times MIC by crystal violet staining based analysis relative to control. In kind it is functional.
Conditions: not given
As for `CCCCCCc1c(-c2ccc(OCCCCNCCCN)cc2OCCCCNCCCN)oc2cc(OC)cc(O)c2c1=O`, the “inhibition (INH)” value is listed as above 90%.

A further experiment has as its system Staphylococcus aureus. The experiment is described as follows: Antibacterial activity in methicillin resistant Staphylococcus aureus clinical isolate 003 at sub-MIC measured after 20 passages. It is filed as functional, organism-based.
Conditions: not given
As for `CCCCCCc1c(-c2ccc(OCCCCNCCCN)cc2OCCCCNCCCN)oc2cc(OC)cc(O)c2c1=O`, the result was Active.

A further experiment concerns Staphylococcus aureus. The experiment is described as follows: Bactericidal activity against methicillin-resistant Staphylococcus aureus clinical isolate 003 assessed as inhibition of bacterial growth by measuring ratio of MBC to MIC. In kind it is functional.
Conditions: not given
For `CCCCCCc1c(-c2ccc(OCCCCNCCCN)cc2OCCCCNCCCN)oc2cc(OC)cc(O)c2c1=O`, the Ratio is listed as below 4.

A further experiment deals with Cell membrane. The experiment is described as follows: Disruption of membrane permeability in methicillin resistant Staphylococcus aureus clinical isolate 003 assessed as nucleic acid leakage at 2 to 4 times MIC.
Conditions: not given
Regarding `CCCCCCc1c(-c2ccc(OCCCCNCCCN)cc2OCCCCNCCCN)oc2cc(OC)cc(O)c2c1=O`, the result was Active.

The next experiment has as its system Enterococcus faecalis. The experiment is described as follows: Antibacterial activity against multidrug resistant Enterococcus faecalis ATCC 51299. In kind it is functional.
Conditions: not given
As a reminder, the MIC is the lowest concentration that inhibits growth of the organism. Take `CCCCCCc1c(-c2ccc(OCCCCNCCCN)cc2OCCCCNCCCN)oc2cc(OC)cc(O)c2c1=O`: inhibition of growth (MIC) required 1 µg/mL (≈ 1.56 µM).

Another experiment deals with Enterococcus faecalis. The experiment is described as follows: Antibiofilm activity in multidrug resistant Enterococcus faecalis ATCC 51299 assessed as biofilm clearance rate at 4 times MIC by crystal violet staining based analysis relative to control.
Conditions: not given
In kind it is functional.
Regarding `CCCCCCc1c(-c2ccc(OCCCCNCCCN)cc2OCCCCNCCCN)oc2cc(OC)cc(O)c2c1=O`, the Activity was around 80%.

A further experiment concerns Enterococcus faecalis. Briefly: Antibacterial activity against multidrug resistant Enterococcus faecalis ATCC 51299 in presence of cardiolipin. In kind it is functional, organism-based.
Conditions: not given
Regarding `CCCCCCc1c(-c2ccc(OCCCCNCCCN)cc2OCCCCNCCCN)oc2cc(OC)cc(O)c2c1=O`, the outcome was inactive.

The subject of the next experiment is Staphylococcus aureus. The experiment is described as follows: Antibacterial activity against methicillin resistant Staphylococcus aureus clinical isolate 003. In kind it is functional.
Conditions: not given
In turn, `CCCCCCc1c(-c2ccc(OCCCCNCCCN)cc2OCCCCNCCCN)oc2cc(OC)cc(O)c2c1=O` displayed an MIC of 0.25 µg/mL (≈ 0.39 µM).

The next experiment deals with Staphylococcus aureus. The experiment is described as follows: Antibacterial activity against methicillin resistant Staphylococcus aureus clinical isolate 003 in presence of cardiolipin. It is filed as functional, organism-based.
Conditions: not given
With `CCCCCCc1c(-c2ccc(OCCCCNCCCN)cc2OCCCCNCCCN)oc2cc(OC)cc(O)c2c1=O`, the result was inactive.

For a further experiment, the system named is Cell membrane. Briefly: Disruption of membrane permeability in methicillin resistant Staphylococcus aureus clinical isolate 003 assessed as increase in fluorescence intensity at 4 to 8 times MIC by PI staining based analysis.
Conditions: not given
Regarding `CCCCCCc1c(-c2ccc(OCCCCNCCCN)cc2OCCCCNCCCN)oc2cc(OC)cc(O)c2c1=O`, the result was Active.

Another experiment deals with Cell membrane. Briefly: Disruption of membrane permeability in multidrug resistant Enterococcus faecalis ATCC 51299 assessed as increase in ROS accumulation at 2 to 4 times MIC measured after 1 hr.
Conditions: not given
For the compound `CCCCCCc1c(-c2ccc(OCCCCNCCCN)cc2OCCCCNCCCN)oc2cc(OC)cc(O)c2c1=O`, the outcome was Active.

The next experiment deals with Cell membrane. The experiment is described as follows: Induction of membrane damage in methicillin resistant Staphylococcus aureus clinical isolate 003 assessed as rupture of bacterial surface at 2 to 4 times MIC by SEM analysis. It is filed as cell membranes.
Conditions: not given
Regarding `CCCCCCc1c(-c2ccc(OCCCCNCCCN)cc2OCCCCNCCCN)oc2cc(OC)cc(O)c2c1=O`, the result was Active.

Another experiment has as its system Staphylococcus aureus. The experiment is described as follows: Antibacterial activity against Staphylococcus aureus clinical isolate 29. In kind it is functional.
Conditions: not given
For `CCCCCCc1c(-c2ccc(OCCCCNCCCN)cc2OCCCCNCCCN)oc2cc(OC)cc(O)c2c1=O`, the MIC stood at 0.5 µg/mL (≈ 0.78 µM).

Another experiment deals with Enterococcus faecalis. Briefly: Antibacterial activity against multidrug resistant Enterococcus faecalis ATCC 51299 in presence of phosphatidylethanolamine.
Conditions: not given
In kind it is functional, organism-based.
`CCCCCCc1c(-c2ccc(OCCCCNCCCN)cc2OCCCCNCCCN)oc2cc(OC)cc(O)c2c1=O`: the result was inactive.

Another experiment has as its system Enterococcus faecalis. The experiment is described as follows: Antibacterial activity against Enterococcus faecalis clinical isolate 7.
Conditions: not given
In kind it is functional.
With `CCCCCCc1c(-c2ccc(OCCCCNCCCN)cc2OCCCCNCCCN)oc2cc(OC)cc(O)c2c1=O`, 1 µg/mL (≈ 1.56 µM) was the least that counted as inhibitory (MIC).

The test system of a further experiment is Cell membrane. Briefly: Disruption of membrane permeability in methicillin resistant Staphylococcus aureus clinical isolate 003 assessed as increase in ROS accumulation at 2 to 4 times MIC measured after 1 hr.
Conditions: not given
On to `CCCCCCc1c(-c2ccc(OCCCCNCCCN)cc2OCCCCNCCCN)oc2cc(OC)cc(O)c2c1=O`, for which the outcome was Active.

A further experiment deals with Cell membrane. Briefly: Induction of cell membrane damage in multidrug resistant Enterococcus faecalis ATCC 51299 assessed as increase in green fluorescence at 2 to 4 times MIC by SYTOX Green dye based analysis. In kind it is cell membranes.
Conditions: not given
Take `CCCCCCc1c(-c2ccc(OCCCCNCCCN)cc2OCCCCNCCCN)oc2cc(OC)cc(O)c2c1=O`: the result was Active.

For the next experiment, the system named is Cell membrane. Briefly: Induction of membrane damage in multidrug resistant Enterococcus faecalis ATCC 51299 assessed as deformation of bacterial surface at 2 to 4 times MIC by SEM analysis.
Conditions: not given
It is filed as cell membranes.
Take `CCCCCCc1c(-c2ccc(OCCCCNCCCN)cc2OCCCCNCCCN)oc2cc(OC)cc(O)c2c1=O`: the outcome was Active.

The next experiment has as its system Cell membrane. The experiment is described as follows: Induction of membrane damage in multidrug resistant Enterococcus faecalis ATCC 51299 assessed as rupture of bacterial surface at 2 to 4 times MIC by SEM analysis. It is filed as cell membranes.
Conditions: not given
For the compound `CCCCCCc1c(-c2ccc(OCCCCNCCCN)cc2OCCCCNCCCN)oc2cc(OC)cc(O)c2c1=O`, the outcome was Active.

The test system of another experiment is Enterococcus faecalis. Briefly: Antibacterial activity against multidrug resistant Enterococcus faecalis ATCC 51299 at 2 to 4 times MIC measured after 8 to 12 hrs by time-kill assay. It is filed as functional, organism-based. Conditions: time 8-12 hrs.
`CCCCCCc1c(-c2ccc(OCCCCNCCCN)cc2OCCCCNCCCN)oc2cc(OC)cc(O)c2c1=O`: the outcome was Active.

A further experiment concerns Cell membrane. Briefly: Disruption of membrane permeability in multidrug resistant Enterococcus faecalis ATCC 51299 assessed as increase in fluorescence intensity at 4 to 8 times MIC by PI staining based analysis.
Conditions: not given
In the case of `CCCCCCc1c(-c2ccc(OCCCCNCCCN)cc2OCCCCNCCCN)oc2cc(OC)cc(O)c2c1=O`, the outcome was Active.

For the origin of these results see ChEMBL document CHEMBL5512659, “Structure optimizing of flavonoids against both MRSA and VRE” (Eur J Med Chem, 2024).
